Measurements published in patent US20080021069A1, “Receptor Function Regulating Agent” (TAKEDA PHARMACEUTICAL COMPANY LIMITED, priority 2004, published 2008).

| Compound | melting point [°C] |
| --- | --- |
| CCOc1ccc(-n2c(SCc3ccc(C(=O)OC)cc3)nc3ccc(Cl)cc32)cc1 [Example 37, Methyl 4-({[6-chloro-1-(4-ethoxyphenyl)-1H-benzimidazol-2-yl]thio}methyl)benzoate] | 107 to 109 |
| Clc1ccc(CSc2nc3cc(Cl)ccc3n2-c2ccc(OCc3ccccc3)cc2)cc1 [Example 133, 1-[4-(Benzyloxy)phenyl]-5-chloro-2-[(4-chlorobenzyl)thio]-1H-benzimidazole] | 137 to 138 |
| CCOc1ccc(-n2c(SCc3ccc(-c4ccccc4)cc3)nc3ccc(Cl)cc32)cc1 [Example 34, 2-[(Biphenyl-4-ylmethyl)thio]-6-chloro-1-(4-ethoxyphenyl)-1H-benzimidazole] | 116 to 117 |
| CCCCOc1ccc(-n2c(SCc3ccc(Cl)cc3)nc3ccc(Cl)cc32)cc1 [Example 22, 1-(4-Butoxyphenyl)-6-chloro-2-[(4-chlorobenzyl)thio]-1H-benzimidazole] | 96 to 97 |
| Clc1ccc2nc(SCc3ccccc3)n(-c3ccccc3)c2c1 [Example 49, 2-(Benzylthio)-6-chloro-1-phenyl-1H-benzimidazole] | 82 to 83 |
| CCOc1ccc(-n2c(SCc3ccc(Cl)cc3)nc3cccc(Cl)c32)cc1 [Example 138, 7-Chloro-2-[(4-chlorobenzyl)thio]-1-(4-ethoxyphenyl)-1H-benzimidazole] | 130 to 131 |
| CCOC(=O)N1CCC(n2c(SCc3ccc(Br)cc3)nc3ccc(Cl)cc32)CC1 [Example 59, Ethyl 4-{2-[(4-bromobenzyl)thio]-6-chloro-1H-benzimidazol-1-yl}piperidine-1-carboxylate] | 123 to 124 |
| FC(F)(F)COc1ccc(-n2c(NCc3ccc(Br)cc3)nc3cc(Cl)ccc32)cc1 [Example 90, N-(4-Bromobenzyl)-5-chloro-1-[4-(2,2,2-trifluoroethoxy)phenyl]-1H-benzimidazol-2-amine] | 146 to 147 |
| COc1ccc(-n2c(SCc3ccc(Cl)cc3)nc3ccc(OC)cc32)cc1 [Example 20, 2-[(4-Chlorobenzyl)thio]-6-methoxy-1-(4-methoxyphenyl)-1H-benzimidazole] | 80 to 81 |
| CCOc1ccc(-n2c(NCc3ccc(Cl)cc3)nc3ccc(Cl)cc32)cc1.Cl [Example 68, N-(4-Chlorobenzyl)-6-chloro-1-(4-ethoxyphenyl)-1H-benzimidazol-2-amine hydrochloride] | 173 to 175 |
| CCCCOc1ccc(-n2c(NCc3ccc(Cl)cc3)nc3cc(Cl)ccc32)cc1 [Example 87, 1-(4-Butoxyphenyl)-5-chloro-N-(4-chlorobenzyl)-1H-benzimidazol-2-amine] | 100 to 101 |
| CCCOc1ccc(-n2c(NCc3ccc(Br)cc3)nc3cc(Cl)ccc32)cc1 [Example 84, N-(4-Bromobenzyl)-5-chloro-1-(4-propoxyphenyl)-1H-benzimidazol-2-amine] | 112 to 113 |
| CCOc1ccc(-n2c(NCc3ccc(Br)cc3)nc3ccc(Cl)cc32)cc1.Cl [Example 69, N-(4-Bromobenzyl)-6-chloro-1-(4-ethoxyphenyl)-1H-benzimidazol-2-amine hydrochloride] | 135 to 138 |
| CCOc1ccc(-n2c(SCc3ccc(Br)cc3)nc3cccc(Cl)c32)cc1 [Example 137, 2-[(4-Bromobenzyl)thio]-7-chloro-1-(4-ethoxyphenyl)-1H-benzimidazole] | 143 to 144 |
| COc1ccc(-n2c(SCc3ccccc3)nc3ccc(Cl)cc32)cc1 [Example 21, 2-(Benzylthio)-6-chloro-1-(4-methoxyphenyl)-1H-benzimidazole] | 89 to 90 |
| CCOc1ccc(-n2c(SCc3ccc(C#N)cc3)nc3ccc(Cl)cc32)cc1 [Example 35, 4-({[6-Chloro-1-(4-ethoxyphenyl)-1H-benzimidazol-2-yl]thio}methyl)benzonitrile] | 154 to 155 |
| COCOc1ccc(-n2c(SCc3cccnc3)nc3ccc(Cl)cc32)cc1 [Example 56, 6-Chloro-1-[4-(methoxymethoxy)phenyl]-2-[(pyridin-3-ylmethyl)thio]-1H-benzimidazole] | 101 to 102 |
| CCOc1ccc(-n2c(NCc3ccc(C(C)(C)C)cc3)nc3ccc(Cl)cc32)cc1.Cl [Example 70, N-(4-tert-Butylbenzyl)-6-chloro-1-(4-ethoxyphenyl)-1H-benzimidazol-2-amine hydrochloride] | 188 to 189 |
| CCOc1ccc(-n2c(SCc3ccc(C(C)(C)C)cc3)nc3cccc(Cl)c32)cc1 [Example 139, 2-[(4-tert-Butylbenzyl)thio]-7-chloro-1-(4-ethoxyphenyl)-1H-benzimidazole] | 175 to 176 |
| CCOc1ccc(-n2c(SC(C)c3ccc(Br)cc3)nc3ccc(Cl)cc32)cc1 (stereo not shown) [Example 48, 2-{[1-(4-Bromophenyl)ethyl]thio}-6-chloro-1-(4-ethoxyphenyl)-1H-benzimidazole] | 95 to 98 |
| CCOc1ccc(-n2c(SCc3ccc(Br)cc3)nc3ccc(Cl)cc32)cc1 [Example 30, 2-[(4-Bromobenzyl)thio]-6-chloro-1-(4-ethoxyphenyl)-1H-benzimidazole] | 136 to 137 |
| Cl.Clc1ccc(CSc2nc3cc(Cl)ccc3n2-c2ccc(OCC3CC3)cc2)cc1 | 118 to 126 |
| CCOCOc1ccc(-n2c(SCc3ccc(Br)cc3)nc3ccc(Cl)cc32)cc1 [Example 32, 2-[(4-Bromobenzyl)thio]-6-chloro-1-[4-(ethoxymethoxy)phenyl]-1H-benzimidazole] | 145 to 146 |
| FC(F)(F)COc1ccc(-n2c(NCc3ccc(Cl)cc3)nc3cc(Cl)ccc32)cc1 [Example 91, 5-Chloro-N-(4-chlorobenzyl)-1-[4-(2,2,2-trifluoroethoxy)phenyl]-1H-benzimidazol-2-amine] | 138 to 139 |

Second part, the molecule after the results:

| melting point [°C] | Compound |
| --- | --- |
| 124 to 125 | COc1ccccc1-n1c(SCc2ccc(Cl)cc2)nc2ccc(Cl)cc21 [Example 18, 6-Chloro-2-[(4-chlorobenzyl)thio]-1-(2-methoxyphenyl)-1H-benzimidazole] |
| 125 to 126 | CON(C)C(=O)c1ccc(-n2c(SCc3ccc(Cl)cc3)nc3ccc(Cl)cc32)cc1 [Example 39, 4-{6-Chloro-2-[(4-chlorobenzyl)thio]-1H-benzimidazol-1-yl}-N-methoxy-N-methylbenzamide] |
| 100 to 101 | CCOC(=O)c1ccc(-n2c(SCc3ccc(Cl)cc3)nc3ccc(Cl)cc32)cc1 [Example 19, Ethyl 4-{6-chloro-2-[(4-chlorobenzyl)thio]-1H-benzimidazol-1-yl}benzoate] |
| 97 to 98 | COCc1ccc(-n2c(SCc3ccc(Cl)cc3)nc3ccc(Cl)cc32)cc1 [Example 116, 6-Chloro-2-[(4-chlorobenzyl)thio]-1-[4-(methoxymethyl)phenyl]-1H-benzimidazole] |
| 193 to 194 | Clc1ccc(CSc2nc3ccc(Cl)cc3n2-c2ccc(OCc3ccccc3)cc2)cc1 [Example 119, 1-[4-(Benzyloxy)phenyl]-6-chloro-2-[(4-chlorobenzyl)thio]-1H-benzimidazole] |
| 139 to 140 | CN(C)C(=O)c1ccc(-n2c(SCc3ccc(Cl)cc3)nc3ccc(Cl)cc32)cc1 [Example 27, 4-{6-Chloro-2-[(4-chlorobenzyl)thio]-1H-benzimidazol-1-yl}-N,N-dimethylbenzamide] |
| 163 to 164 | CC(C)(C)OC(=O)Nc1ccc(-n2c(SCc3ccc(Cl)cc3)nc3ccc(Cl)cc32)cc1 [Example 114, tert-Butyl (4-{6-chloro-2-[(4-chlorobenzyl)thio]-1H-benzimidazol-1-yl}phenyl)carbamate] |
| 121 to 122 | OCc1ccc(-n2c(SCc3ccc(Cl)cc3)nc3ccc(Cl)cc32)cc1 [Example 115, (4-{6-Chloro-2-[(4-chlorobenzyl)thio]-1H-benzimidazol-1-yl}phenyl)methanol] |
| 210 to 212 | Oc1ccc(-n2c(SCc3ccc(Cl)cc3)nc3ccc(Cl)cc32)cc1 [Example 9, 4-{6-Chloro-2-[(4-chlorobenzyl)thio]-1H-benzimidazol-1-yl}phenol] |
| 107 to 108 | Clc1ccc(CSc2nc3ccc(Cl)cc3n2-c2ccccn2)cc1 [Example 130, 6-Chloro-2-[(4-chlorobenzyl)thio]-1-(pyridin-2-yl)-1H-benzimidazole] |
| 126 to 127 | CC(=O)OCCOc1ccc(-n2c(SCc3ccc(Cl)cc3)nc3ccc(Cl)cc32)cc1 [Example 15, 2-(4-{6-Chloro-2-[(4-chlorobenzyl)thio]-1H-benzimidazol-1-yl}phenoxy)ethyl acetate] |
| 265 to 266 | O=C(O)c1ccc(-n2c(SCc3ccc(Cl)cc3)nc3ccc(Cl)cc32)cc1 [Example 42, 4-{6-Chloro-2-[(4-chlorobenzyl)thio]-1H-benzimidazol-1-yl}benzoic acid] |
| 88 to 90 | COCCOc1ccc(-n2c(SCc3ccc(Cl)cc3)nc3ccc(Cl)cc32)cc1 [Example 24, 6-Chloro-2-[(4-chlorobenzyl)thio]-1-[4-(2-methoxyethoxy)phenyl]-1H-benzimidazole] |
| 95 to 96 | CCOCc1ccc(-n2c(SCc3ccc(Cl)cc3)nc3ccc(Cl)cc32)cc1 [Example 117, 6-Chloro-2-[(4-chlorobenzyl)thio]-1-[4-(ethoxymethyl)phenyl]-1H-benzimidazole] |
| 156 to 157 | Clc1ccc(CSc2nc3ccc(Cl)cc3n2-c2ccc(Cl)cc2)cc1 [Example 26, 6-Chloro-2-[(4-chlorobenzyl)thio]-1-(4-chlorophenyl)-1H-benzimidazole] |
| 113 to 114 | OCCOc1ccc(-n2c(SCc3ccc(Cl)cc3)nc3ccc(Cl)cc32)cc1 [Example 16, 2-(4-{6-Chloro-2-[(4-chlorobenzyl)thio]-1H-benzimidazol-1-yl}phenoxy)ethanol] |
| 106 to 107 | Cl.FC(F)(F)COc1ccc(-n2c(SCc3ccc(Cl)cc3)nc3ccc(Cl)cc32)cc1 |
| 96 to 100 | Cl.FC(F)(F)Oc1ccc(-n2c(SCc3ccc(Cl)cc3)nc3cc(Cl)ccc32)cc1 |
| 130 to 131 | Clc1ccc(CSc2nc3ccc(Cl)cc3n2-c2ccc(-c3cnco3)cc2)cc1 [Example 136, 6-Chloro-2-[(4-chlorobenzyl)thio]-1-[4-(1,3-oxazol-5-yl)phenyl]-1H-benzimidazole] |
